Laboratory results: PubChem BioAssay AID1963442 (Molecular Pharmacology Branch, DTP, NCI, 2024)
Values joined by “and” are separate entries in the source; they are usually repeats but may differ in a detail not shown here. Equal entries are not always repeated.

Test system: MPNST complex spheroid with HUVEC/MSC, growth, % test/control
Assay: Anticancer human tumor MPNST cell line growth inhibition [Asc];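 further: compounds left on spheroids for seven days before reading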
Settings: for viability, T/C: stronger effect = lower value
Procedure, shortened: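 Complex solid-tumor spheroids incorporating human endothelial and mesenchymal stem cells received single agents or combinations over half-log dilution ranges anchored to clinical Cmax.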

[1] = curve of first compound, second compound 0.1 µM
[2] = curve of first compound, second compound 0.316 µM
[3] = curve of first compound, second compound 1 µM
[4] = second compound 0.1 µM, first compound 0.00316 µM
[5] = second compound 0.1 µM, first compound 0.01 µM
[6] = second compound 0.1 µM, first compound 0.0316 µM
[7] = second compound 0.1 µM, first compound 0.1 µM
[8] = second compound 0.1 µM, first compound 0.316 µM
[9] = second compound 0.1 µM, first compound 1 µM
[10] = second compound 0.316 µM, first compound 0.00316 µM
[11] = second compound 0.316 µM, first compound 0.01 µM
[12] = second compound 0.316 µM, first compound 0.0316 µM
[13] = second compound 0.316 µM, first compound 0.1 µM
[14] = second compound 0.316 µM, first compound 0.316 µM
[15] = second compound 0.316 µM, first compound 1 µM
[16] = second compound 1 µM, first compound 0.00316 µM
[17] = second compound 1 µM, first compound 0.01 µM
[18] = second compound 1 µM, first compound 0.0316 µM
[19] = second compound 1 µM, first compound 0.1 µM
[20] = second compound 1 µM, first compound 0.316 µM
[21] = second compound 1 µM, first compound 1 µM
[22] = curve of first compound, second compound 3.16 µM
[23] = curve of first compound, second compound 10 µM

`CCN1CCN(Cc2ccc(Nc3ncc(F)c(-c4cc(F)c5nc(C)n(C(C)C)c5c4)n3)nc2)CC1` + CNC(C)C(=O)NC1CN(S(=O)(=O)c2cccc(S(=O)(=O)N3CCC4CCC(C(=O)NC(c5ccccc5)c5ccccc5)N4C(=O)C(NC(=O)C(C)NC)C3)c2)CCC2CCC(C(=O)NC(c3ccccc3)c3ccccc3)N2C1=O was tested. Which IC50 (curve of first compound, second compound 0.00316 µM) did it give?
The IC50 was greater than 1000 nM.

What about the IC50 (curve of first compound, second compound 0.01 µM) of the same compound?
Its IC50 is greater than 1000 nM.

What about the IC50 (curve of first compound, second compound 0.0316 µM) of the same compound?
The IC50 was greater than 1000 nM.

And the IC50 [1]?
The IC50 was greater than 1000 nM.

What about the IC50 [2] of the same compound?
The IC50 was greater than 1000 nM.

And the IC50 [3]?
The IC50 was greater than 1000 nM.

And the viability, T/C (second compound 0.00316 µM, first compound 0.00316 µM)?
The viability, T/C was 80.7%.

And the viability, T/C (second compound 0.00316 µM, first compound 0.01 µM)?
Its viability, T/C is 58.2%.

What about the viability, T/C (second compound 0.00316 µM, first compound 0.0316 µM) of the same compound?
The viability, T/C was 58.9%.

What about the viability, T/C (second compound 0.00316 µM, first compound 0.1 µM) of the same compound?
The viability, T/C was 56.2%.

What about the viability, T/C (second compound 0.00316 µM, first compound 0.316 µM) of the same compound?
The viability, T/C was 51.9%.

And the viability, T/C (second compound 0.00316 µM, first compound 1 µM)?
The viability, T/C was 57.2%.

And the viability, T/C (second compound 0.01 µM, first compound 0.00316 µM)?
The viability, T/C was 141%.

And the viability, T/C (second compound 0.01 µM, first compound 0.01 µM)?
The viability, T/C was 83.2%.

What about the viability, T/C (second compound 0.01 µM, first compound 0.0316 µM) of the same compound?
The viability, T/C was 102%.

What about the viability, T/C (second compound 0.01 µM, first compound 0.1 µM) of the same compound?
Its viability, T/C is 71.8%.

What about the viability, T/C (second compound 0.01 µM, first compound 0.316 µM) of the same compound?
Its viability, T/C is 61.2%.

What about the viability, T/C (second compound 0.01 µM, first compound 1 µM) of the same compound?
The viability, T/C was 73%.

What about the viability, T/C (second compound 0.0316 µM, first compound 0.00316 µM) of the same compound?
The viability, T/C was 94.5%.

What about the viability, T/C (second compound 0.0316 µM, first compound 0.01 µM) of the same compound?
The viability, T/C was 92.9%.

And the viability, T/C (second compound 0.0316 µM, first compound 0.0316 µM)?
Its viability, T/C is 106%.

And the viability, T/C (second compound 0.0316 µM, first compound 0.1 µM)?
Its viability, T/C is 66.5%.

And the viability, T/C (second compound 0.0316 µM, first compound 0.316 µM)?
The viability, T/C was 72.5%.

What about the viability, T/C (second compound 0.0316 µM, first compound 1 µM) of the same compound?
Its viability, T/C is 87.1%.

What about the viability, T/C [4] of the same compound?
Its viability, T/C is 79.7%.

What about the viability, T/C [5] of the same compound?
The viability, T/C was 74.2%.

And the viability, T/C [6]?
The viability, T/C was 75.3%.

What about the viability, T/C [7] of the same compound?
Its viability, T/C is 61.7%.

And the viability, T/C [8]?
The viability, T/C was 60.7%.

And the viability, T/C [9]?
The viability, T/C was 82.7%.

And the viability, T/C [10]?
Its viability, T/C is 86.5%.

And the viability, T/C [11]?
The viability, T/C was 69.8%.

What about the viability, T/C [12] of the same compound?
The viability, T/C was 106%.

And the viability, T/C [13]?
The viability, T/C was 104%.

And the viability, T/C [14]?
The viability, T/C was 71.9%.

And the viability, T/C [15]?
The viability, T/C was 76.7%.

What about the viability, T/C [16] of the same compound?
Its viability, T/C is 66.6%.

And the viability, T/C [17]?
The viability, T/C was 83%.

And the viability, T/C [18]?
Its viability, T/C is 66.4%.

What about the viability, T/C [19] of the same compound?
The viability, T/C was 61.4%.

What about the viability, T/C [20] of the same compound?
Its viability, T/C is 73.9%.

What about the viability, T/C [21] of the same compound?
Its viability, T/C is 68.7%.

What does the source list for `CCN1C(C(=O)NC23CCC(C(=O)O)(CC2)CC3)C(c2cccc(Cl)c2F)C2(C(=O)Nc3cc(Cl)ccc32)C12CCCCC2` (centres undefined) + Cc1c(S(C)(=O)=O)c(-c2cc(F)cc(N3CCN(c4ccc(NS(=O)(=O)c5ccc(NC(CCN6CCC(C(=O)OCCCP(=O)(O)O)CC6)CSc6ccccc6)c(S(=O)(=O)C(F)(F)F)c5)cc4)CC3)c2)c(-c2ccc(Cl)cc2)n1C(C)C?
IC50 [1]: > 3000 nM; IC50 [2]: > 3000 nM; IC50 [3]: > 3000 nM; IC50 [22]: > 3000 nM; IC50 [23]: > 3000 nM; viability, T/C (second compound 0.1 µM, first compound 0.00949 µM): 66.3%; viability, T/C (second compound 0.1 µM, first compound 0.03 µM): 92.1%; viability, T/C (second compound 0.1 µM, first compound 0.0949 µM): 78.6%; viability, T/C (second compound 0.1 µM, first compound 0.3 µM): 69.6%; viability, T/C (second compound 0.1 µM, first compound 0.949 µM): 82.5%; viability, T/C (second compound 0.1 µM, first compound 3 µM): 58.6%; viability, T/C (second compound 0.316 µM, first compound 0.00949 µM): 84%; viability, T/C (second compound 0.316 µM, first compound 0.03 µM): 76.4%; viability, T/C (second compound 0.316 µM, first compound 0.0949 µM): 75.2%; viability, T/C (second compound 0.316 µM, first compound 0.3 µM): 66.9%; viability, T/C (second compound 0.316 µM, first compound 0.949 µM): 58.5%; viability, T/C (second compound 0.316 µM, first compound 3 µM): 60.3%; viability, T/C (second compound 1 µM, first compound 0.00949 µM): 83.1%; viability, T/C (second compound 1 µM, first compound 0.03 µM): 77.6%; viability, T/C (second compound 1 µM, first compound 0.0949 µM): 78.9%; viability, T/C (second compound 1 µM, first compound 0.3 µM): 66.6%; viability, T/C (second compound 1 µM, first compound 0.949 µM): 58.8%; viability, T/C (second compound 1 µM, first compound 3 µM): 63%; viability, T/C (second compound 3.16 µM, first compound 0.00949 µM): 77.9%; viability, T/C (second compound 3.16 µM, first compound 0.03 µM): 69.7%; viability, T/C (second compound 3.16 µM, first compound 0.0949 µM): 92.9%; viability, T/C (second compound 3.16 µM, first compound 0.3 µM): 59.1%; viability, T/C (second compound 3.16 µM, first compound 0.949 µM): 61.6%; viability, T/C (second compound 3.16 µM, first compound 3 µM): 56.7%; viability, T/C (second compound 10 µM, first compound 0.00949 µM): 85.9%; viability, T/C (second compound 10 µM, first compound 0.03 µM): 82.3%; viability, T/C (second compound 10 µM, first compound 0.0949 µM): 75.4%; viability, T/C (second compound 10 µM, first compound 0.3 µM): 68.8%; viability, T/C (second compound 10 µM, first compound 0.949 µM): 56.5%; viability, T/C (second compound 10 µM, first compound 3 µM): 58.3%

With `O=C(c1ccc(F)c(F)c1Nc1ccc(I)cc1F)N1CC(O)([C@@H]2CCCCN2)C1` as the compound, how does the viability, T/C (compound 0.00316 µM) read?
The viability, T/C was 100% and 84.6% and 73.2%.

And the viability, T/C (compound 0.01 µM)?
Its viability, T/C is 60.5% and 110% and 78.5%.

What about the viability, T/C (compound 0.0316 µM) of the same compound?
Its viability, T/C is 58.9% and 123% and 126%.

What about the viability, T/C (compound 0.1 µM) of the same compound?
Its viability, T/C is 65.1% and 103% and 84.6%.

What about the viability, T/C (compound 0.316 µM) of the same compound?
Its viability, T/C is 67.3% and 72% and 85.4%.

And the viability, T/C (compound 1 µM)?
The viability, T/C was 13.1% and 29.3% and 32.3%.

And the IC50 (curve of compound)?
Its IC50 is 448 nM and 572 nM and 682 nM.

What does the source list for `COc1c(OCCCN2CCOCC2)ccc2c3n(c(=NC(=O)c4cnc(N)nc4)nc12)CCN3` + Cc1c(S(C)(=O)=O)c(-c2cc(F)cc(N3CCN(c4ccc(NS(=O)(=O)c5ccc(NC(CCN6CCC(C(=O)OCCCP(=O)(O)O)CC6)CSc6ccccc6)c(S(=O)(=O)C(F)(F)F)c5)cc4)CC3)c2)c(-c2ccc(Cl)cc2)n1C(C)C?
IC50 [1]: 68.1 nM; IC50 [2]: 50.3 nM; IC50 [3]: 62.8 nM; IC50 [22]: 31.7 nM; IC50 [23]: 29.3 nM; viability, T/C [4]: 60.5%; viability, T/C [5]: 71.7%; viability, T/C [6]: 62.3%; viability, T/C [7]: 41.8%; viability, T/C [8]: 30.4%; viability, T/C [9]: 18.6%; viability, T/C [10]: 72.6%; viability, T/C [11]: 62.3%; viability, T/C [12]: 61.7%; viability, T/C [13]: 35%; viability, T/C [14]: 23.8%; viability, T/C [15]: 16.8%; viability, T/C [16]: 75.9%; viability, T/C [17]: 77.1%; viability, T/C [18]: 62.4%; viability, T/C [19]: 40.1%; viability, T/C [20]: 25.2%; viability, T/C [21]: 14.4%; viability, T/C (second compound 3.16 µM, first compound 0.00316 µM): 79.3%; viability, T/C (second compound 3.16 µM, first compound 0.01 µM): 69.5%; viability, T/C (second compound 3.16 µM, first compound 0.0316 µM): 49.7%; viability, T/C (second compound 3.16 µM, first compound 0.1 µM): 31.1%; viability, T/C (second compound 3.16 µM, first compound 0.316 µM): 18.9%; viability, T/C (second compound 3.16 µM, first compound 1 µM): 16.8%; viability, T/C (second compound 10 µM, first compound 0.00316 µM): 90.1%; viability, T/C (second compound 10 µM, first compound 0.01 µM): 71.8%; viability, T/C (second compound 10 µM, first compound 0.0316 µM): 48.5%; viability, T/C (second compound 10 µM, first compound 0.1 µM): 27.5%; viability, T/C (second compound 10 µM, first compound 0.316 µM): 18.3%; viability, T/C (second compound 10 µM, first compound 1 µM): 8.75%
